Test results as given in ChEMBL document CHEMBL2151017, “Inhibition of α-glucosidase and α-amylase by diaryl derivatives of imidazole-thione and 1,2,4-triazole-thiol” (Eur J Med Chem, 2011).
Active and inactive are the calls of the source. The calls are words filed in the database; no cut-off is given here.

Key:
[1] = Toxicity in po dosed Spanish V-line rabbit assessed as mortality after 24 hrs; format: organism-based, Oryctolagus cuniculus; conditions: in vivo
[2] = tested on: Oryctolagus cuniculus; experiment: In vivo inhibition of Spanish V-line rabbit liver alpha-glucosidase assessed as specific enzyme activity per mg protein using maltose as substrate at 10% LD50, po after 8 hrs; format: functional
[3] = tested on: Oryctolagus cuniculus; experiment: In vivo inhibition of Spanish V-line rabbit liver alpha-glucosidase assessed as specific enzyme activity per mg protein using maltose as substrate at 10% LD50, po after 16 hrs; format: functional
[4] = tested on: Oryctolagus cuniculus; experiment: In vivo inhibition of Spanish V-line rabbit liver alpha-glucosidase assessed as specific enzyme activity per mg protein using maltose as substrate at 10% LD50, po after 24 hrs; format: functional
[5] = tested on: Oryctolagus cuniculus; experiment: In vivo inhibition of Spanish V-line rabbit liver alpha-glucosidase assessed as specific enzyme activity per mg protein using maltose as substrate at 10% LD50, po after 48 hrs; format: functional
[6] = tested on: Oryctolagus cuniculus; experiment: In vivo inhibition of Spanish V-line rabbit liver alpha-glucosidase assessed as specific enzyme activity per mg protein using maltose as substrate at 10% LD50, po after 72 hrs; format: functional
[7] = tested on: Oryctolagus cuniculus; experiment: In vivo inhibition of Spanish V-line rabbit liver alpha-glucosidase assessed as specific enzyme activity per mg protein using maltose as substrate at 10% LD50, po after 96 hrs; format: functional
[8] = tested on: Oryctolagus cuniculus; experiment: In vivo inhibition of Spanish V-line rabbit liver alpha-amylase assessed as specific enzyme activity per mg protein using starch as substrate at 10% LD50, po after 8 hrs; format: functional
[9] = tested on: Oryctolagus cuniculus; experiment: In vivo inhibition of Spanish V-line rabbit liver alpha-amylase assessed as specific enzyme activity per mg protein using starch as substrate at 10% LD50, po after 16 hrs; format: functional
[10] = tested on: Oryctolagus cuniculus; experiment: In vivo inhibition of Spanish V-line rabbit liver alpha-amylase assessed as specific enzyme activity per mg protein using starch as substrate at 10% LD50, po after 24 hrs; format: functional
[11] = tested on: Oryctolagus cuniculus; experiment: In vivo inhibition of Spanish V-line rabbit liver alpha-amylase assessed as specific enzyme activity per mg protein using starch as substrate at 10% LD50, po after 48 hrs; format: functional
[12] = tested on: Oryctolagus cuniculus; experiment: In vivo inhibition of Spanish V-line rabbit liver alpha-amylase assessed as specific enzyme activity per mg protein using starch as substrate at 10% LD50, po after 72 hrs; format: functional
[13] = tested on: Oryctolagus cuniculus; experiment: In vivo inhibition of Spanish V-line rabbit liver alpha-amylase assessed as specific enzyme activity per mg protein using starch as substrate at 10% LD50, po after 96 hrs; format: functional
[14] = tested on: Oryctolagus cuniculus; experiment: In vivo inhibition of Spanish V-line rabbit liver alpha-amylase assessed as specific enzyme activity per mg protein using starch as substrate at 10% LD50, po after 120 hrs; format: functional
[15] = tested on: Oryctolagus cuniculus; experiment: In vivo inhibition of Spanish V-line rabbit alpha-glucosidase using maltose as substrate at 25% LD50, po after 24 hrs relative to control; format: functional
[16] = tested on: Oryctolagus cuniculus; experiment: In vivo inhibition of Spanish V-line rabbit liver alpha-glucosidase assessed as specific enzyme activity per mg protein using maltose as substrate at 10% LD50, po after 120 hrs; format: functional
[17] = tested on: Oryctolagus cuniculus; experiment: In vivo inhibition of alpha-glucosidase in po dosed Spanish V-line rabbit using maltose as substrate after 24 hrs; format: functional, organism-based
[18] = tested on: Oryctolagus cuniculus; experiment: In vivo inhibition of alpha-amylase in po dosed Spanish V-line rabbit using starch as substrate at after 24 hrs; format: functional, organism-based
[19] = tested on: Oryctolagus cuniculus; experiment: In vivo inhibition of Spanish V-line rabbit alpha-amylase using starch as substrate at 25% LD50, po after 24 hrs relative to control; format: functional
[20] = Inhibition of Spanish V-line rabbit liver alpha-glucosidase using maltose as substrate after 5 mins by spectrophotometry; design: species or system Oryctolagus cuniculus
[21] = Inhibition of Spanish V-line rabbit liver alpha-amylase using starch as substrate after 5 mins by spectrophotometry; design: species or system Oryctolagus cuniculus
[22] = species: Oryctolagus cuniculus; experiment: Reversible Inhibition of Spanish V-line rabbit liver alpha-glucosidase using maltose as substrate compound preincubated for 60 mins by dialysis method
[23] = species: Oryctolagus cuniculus; experiment: Reversible Inhibition of Spanish V-line rabbit liver alpha-amylase using starch as substrate compound preincubated for 60 mins by dialysis method
[24] = species: Oryctolagus cuniculus; experiment: Inhibition of Spanish V-line rabbit liver alpha-glucosidase using maltose as substrate assessed per mg protein at 16 uM by Lineweaver-Burk plot ( RVb = 53 +/- 5 10^-3 uM/min/mg protein )
[25] = species: Oryctolagus cuniculus; experiment: Inhibition of Spanish V-line rabbit liver alpha-glucosidase using maltose as substrate assessed per mg protein at 32 uM by Lineweaver-Burk plot ( RVb = 53 +/- 5 10^-3 uM/min/mg protein )
[26] = species: Oryctolagus cuniculus; experiment: Inhibition of Spanish V-line rabbit liver alpha-glucosidase using maltose as substrate assessed per mg protein at 64 uM by Lineweaver-Burk plot ( RVb = 53 +/- 5 10^-3 uM/min/mg protein )
[27] = species: Oryctolagus cuniculus; experiment: Inhibition of Spanish V-line rabbit liver alpha-amylase using starch as substrate assessed per mg protein at 16 uM by Lineweaver-Burk plot ( RVb = 9.0 +/- 0.8 10^-3 uM/min/mg protein )
[28] = species: Oryctolagus cuniculus; experiment: Inhibition of Spanish V-line rabbit liver alpha-amylase using starch as substrate assessed per mg protein at 32 uM by Lineweaver-Burk plot ( RVb = 9.0 +/- 0.8 10^-3 uM/min/mg protein )
[29] = species: Oryctolagus cuniculus; experiment: Inhibition of Spanish V-line rabbit liver alpha-amylase using starch as substrate assessed per mg protein at 64 uM by Lineweaver-Burk plot ( RVb = 9.0 +/- 0.8 10^-3 uM/min/mg protein )
[30] = species: Oryctolagus cuniculus; experiment: Inhibition of Spanish V-line rabbit liver alpha-glucosidase using maltose as substrate assessed per mg protein at 48 uM by Lineweaver-Burk plot ( RVb = 53 +/- 5 10^-3 uM/min/mg protein )
[31] = species: Oryctolagus cuniculus; experiment: Inhibition of Spanish V-line rabbit liver alpha-amylase using starch as substrate assessed per mg protein at 48 uM by Lineweaver-Burk plot ( RVb = 9.0 +/- 0.8 10^-3 uM/min/mg protein )
[32] = Competitive inhibition of Spanish V-line rabbit liver alpha-glucosidase using maltose as substrate by Dixon plot analysis; design: species or system Oryctolagus cuniculus
[33] = Competitive inhibition of Spanish V-line rabbit liver alpha-glucosidase using maltose as substrate by Lineweaver-Burk plot analysis; design: species or system Oryctolagus cuniculus
[34] = Non-competitive inhibition of Spanish V-line rabbit liver alpha-amylase using starch as substrate by Lineweaver-Burk plot analysis; design: species or system Oryctolagus cuniculus
[35] = Non-competitive inhibition of Spanish V-line rabbit liver alpha-amylase using starch as substrate by Dixon plot analysis; design: species or system Oryctolagus cuniculus
[36] = species: Oryctolagus cuniculus; experiment: Competitive inhibition of Spanish V-line rabbit liver alpha-glucosidase using maltose as substrate
[37] = species: Oryctolagus cuniculus; experiment: Non-competitive inhibition of Spanish V-line rabbit liver alpha-amylase using starch as substrate
[38] = species: Oryctolagus cuniculus; experiment: Inhibition of Spanish V-line rabbit liver alpha-glucosidase using maltose as substrate assessed per mg protein at 12 uM by Lineweaver-Burk plot ( RVb = 55 +/- 5.2 10^-3 uM/min/mg protein )
[39] = species: Oryctolagus cuniculus; experiment: Inhibition of Spanish V-line rabbit liver alpha-glucosidase using maltose as substrate assessed per mg protein at 24 uM by Lineweaver-Burk plot ( RVb = 55 +/- 5.2 10^-3 uM/min/mg protein )
[40] = species: Oryctolagus cuniculus; experiment: Inhibition of Spanish V-line rabbit liver alpha-glucosidase using maltose as substrate assessed per mg protein at 36 uM by Lineweaver-Burk plot ( RVb = 55 +/- 5.2 10^-3 uM/min/mg protein )
[41] = species: Oryctolagus cuniculus; experiment: Inhibition of Spanish V-line rabbit liver alpha-glucosidase using maltose as substrate assessed per mg protein at 48 uM by Lineweaver-Burk plot ( RVb = 55 +/- 5.2 10^-3 uM/min/mg protein )
[42] = species: Oryctolagus cuniculus; experiment: Inhibition of Spanish V-line rabbit liver alpha-amylase using starch as substrate assessed per mg protein at 12 uM by Lineweaver-Burk plot ( RVb = 9.0 +/- 0.8 10^-3 uM/min/mg protein )
[43] = species: Oryctolagus cuniculus; experiment: Inhibition of Spanish V-line rabbit liver alpha-amylase using starch as substrate assessed per mg protein at 24 uM by Lineweaver-Burk plot ( RVb = 9.0 +/- 0.8 10^-3 uM/min/mg protein )
[44] = species: Oryctolagus cuniculus; experiment: Inhibition of Spanish V-line rabbit liver alpha-amylase using starch as substrate assessed per mg protein at 36 uM by Lineweaver-Burk plot ( RVb = 9.0 +/- 0.8 10^-3 uM/min/mg protein )
[45] = Non-competitive inhibition of Spanish V-line rabbit liver alpha-glucosidase using maltose as substrate by Dixon plot analysis; design: species or system Oryctolagus cuniculus
[46] = Non-competitive inhibition of Spanish V-line rabbit liver alpha-glucosidase using maltose as substrate by Lineweaver-Burk plot analysis; design: species or system Oryctolagus cuniculus
[47] = species: Oryctolagus cuniculus; experiment: Non-competitive inhibition of Spanish V-line rabbit liver alpha-glucosidase using maltose as substrate
[48] = species: Oryctolagus cuniculus; experiment: Inhibition of Spanish V-line rabbit liver alpha-glucosidase using maltose as substrate assessed per mg protein at 16 uM by Lineweaver-Burk plot ( RVb = 55 +/- 5 10^-3 uM/min/mg protein )
[49] = species: Oryctolagus cuniculus; experiment: Inhibition of Spanish V-line rabbit liver alpha-glucosidase using maltose as substrate assessed per mg protein at 32 uM by Lineweaver-Burk plot ( RVb = 55 +/- 5 10^-3 uM/min/mg protein )
[50] = species: Oryctolagus cuniculus; experiment: Inhibition of Spanish V-line rabbit liver alpha-glucosidase using maltose as substrate assessed per mg protein at 48 uM by Lineweaver-Burk plot ( RVb = 55 +/- 5 10^-3 uM/min/mg protein )
[51] = species: Oryctolagus cuniculus; experiment: Inhibition of Spanish V-line rabbit liver alpha-glucosidase using maltose as substrate assessed per mg protein at 64 uM by Lineweaver-Burk plot ( RVb = 55 +/- 5 10^-3 uM/min/mg protein )
[52] = species: Oryctolagus cuniculus; experiment: Inhibition of Spanish V-line rabbit liver alpha-amylase using starch as substrate

Row | SMILES | LD50 at 24 h [1] [mg/kg] | Activity [2] [µM/min] | Activity [3] [µM/min] | Activity [4] [µM/min] | Activity [5] [µM/min] | Activity [6] [µM/min] | Activity [7] [µM/min] | Activity [8] [µM/min] | Activity [9] [µM/min] | Activity [10] [µM/min] | Activity [11] [µM/min] | Activity [12] [µM/min] | Activity [13] [µM/min] | Activity [14] [µM/min] | inhibition (INH) [15] [%] | Activity [16] [µM/min] | inhibition [17] | inhibition [18] | inhibition (INH) [19] [%] | IC50 [20] [µM] | also measured
1 | Sc1nnc(-c2ccccc2)n1-c1ccccc1 | 107 | 18.6 | 16.7 | 15.4 | 16.1 | 18.5 | 19.8 | 4.5 | 4.1 | 3.7 | 4 | 4.3 | 4.6 | 4.7 | 50 | 19.9 | Dose-dependent effect | Dose-dependent effect | 46 | 67 | IC50 [21]: 73 µM; inhibition [22]: Active; inhibition [23]: Active; Vmax [24]: 20 nM/min; Vmax [25]: 18 nM/min; Vmax [26]: 12.5 nM/min; Vmax [27]: 8 nM/min; Vmax [28]: 6.3 nM/min; Vmax [29]: 5.3 nM/min; Vmax [30]: 16.6 nM/min; Vmax [31]: 5.4 nM/min; Ki [32]: 38 µM; Ki [33]: 42 µM; Ki [34]: 72 µM; Ki [35]: 65 µM; inhibition [36]: Dose-dependent effect; inhibition [37]: Dose-dependent effect
2 | S=C1N=C(c2ccccc2)C(c2ccccc2)=N1 | 204 | 17.6 | 15.2 | 14.3 | 15.6 | 16.9 | 19.3 | 3.8 | 3.1 | 2.3 | 2.9 | 3.3 | 4.3 | 4.4 | 62 | 23.5 | Dose-dependent effect | Dose-dependent effect | 53 | 56 | Vmax [38]: 41 nM/min; IC50 [21]: 47 µM; inhibition [22]: Active; inhibition [23]: Active; Vmax [39]: 33 nM/min; Vmax [40]: 27 nM/min; Vmax [41]: 2.4 nM/min; Vmax [42]: 8.3 nM/min; Vmax [43]: 7.1 nM/min; Vmax [44]: 6.3 nM/min; Vmax [31]: 5.5 nM/min; Ki [45]: 43 µM; Ki [46]: 35 µM; Ki [34]: 63 µM; Ki [35]: 60 µM; inhibition [47]: Dose-dependent effect; inhibition [37]: Dose-dependent effect
3 | Oc1ccccc1-c1nnc(S)n1-c1ccccc1 | 155 | 15.6 | 14.2 | 13.1 | 14.2 | 15.6 | 16.2 | 4.8 | 4.4 | 4.3 | 4.4 | 4.6 | 4.8 | 5.1 | 57 | 18.8 | Dose-dependent effect | Dose-dependent effect | 27 | 105 | inhibition [22]: Active; inhibition [23]: Active; Vmax [27]: 9.3 nM/min; Vmax [28]: 9.2 nM/min; Vmax [29]: 8.9 nM/min; Vmax [31]: 9.5 nM/min; Vmax [48]: 16.6 nM/min; Vmax [49]: 15.6 nM/min; Vmax [50]: 12.5 nM/min; Vmax [51]: 10.2 nM/min; Ki [32]: 50.8 µM; inhibition [36]: Dose-dependent effect; inhibition [52]: Dose-dependent effect
